This assay has as its system B. burgdorferi 5A11. Briefly: Growth of B. burgdorferi in BSK-II medium with GlcNAc replaced by other N-acetylated sugars. Format: cell-based, Borrelia burgdorferi. The settings on record: FIG. 7; for ability to support growth in the absence of GlcNAc: GlcNAc-free BSK-II supplemented with the sugar, 37° C., 5% CO2.

The values below come from US20250298019A1, “BORRELIA BURGDORFERI PEPTIDOGLYCAN DETECTION METHODS” (VIRGINIA TECH INTELLECTUAL PROPERTIES, INC., priority 2021, published 2025).

On to `CC(=O)N[C@H]1C(O)O[C@H](CO)[C@H](O)[C@@H]1O` (stereo partly drawn) [GalNAc, N-acetylgalactosamine], for which the “ability to support growth in the absence of GlcNAc” value is reported as “support growth in the absence of GlcNAc”.
In the case of `CC(=O)N[C@@H]1C(O)O[C@H](CO)[C@@H](O)[C@@H]1O` (stereo partly drawn) [ManNAc, N-acetylmannosamine], the “ability to support growth in the absence of GlcNAc” value is recorded as “support growth in the absence of GlcNAc”. Moreover, the “replication rate and final density compared with GlcNAc” value (5A11 in BSK-II complete media supplemented with the sugar, three independent cultures) is “replicated at a similar rate and reached a comparable final density to GlcNAc”.
